According to patent publication US20080107613A1, “Pharmaceutical composition comprising a macrolide t-cell immunomodulator and anti-photoaging agent” (priority 2004, published 2008):

What was measured:
[1] = system: DNA damage induced by UV light in mouse skin (epidermal thymine dimers); conditions: hairless mice pretreated with 1% pimecrolimus cream or 0.1% tacrolimus ointment; measured one hour after 1 J/cm^2 UVB irradiation; cited from earlier work
[2] = system: UVB-induced apoptosis in mouse skin; conditions: hairless mice pretreated with 1% pimecrolimus cream or 0.1% tacrolimus ointment; UVB irradiation; versus untreated mice; cited from earlier work
[3] = system: pyrimidine/thymine dimers in DNA extracted from epidermis; assay: Thymine dimer levels in human epidermis after simulated solar radiation (immunoslot blot, chemoluminescence image analysis); format: in vivo; conditions: skin sites of subjects with or without atopic dermatitis pretreated with pimecrolimus, 1 hour post-irradiation
Procedure: Similar results are obtained with skin from subjects receiving pimecrolimus, either with or without skin disease (atopic dermatitis), exposed to simulated solar radiation, when DNA is extracted from epidermis biopsied 1 hour and 24 hours after irradiation, as measured by pyrimidine dimer visualization by immunoslot blot and quantification by chemoluminescence image analysis: at 1 hour post-irradiation thymine dimer levels are clearly lower as compared to untreated control, indicative of reduced dimer production in skin sites pretreated with pimecrolimus.

Compound | decrease of amount of epidermal thymine dimers as compared to untreated mice [1] [%] | UVB-induced apoptosis [2] | thymine dimer levels as compared to untreated control [3]
C=CC[C@@H]1/C=C(\C)C[C@H](C)C[C@H](OC)[C@H]2O[C@@](O)(C(=O)C(=O)N3CCCC[C@H]3C(=O)O[C@H](/C(C)=C/[C@@H]3CC[C@@H](O)[C@H](OC)C3)[C@H](C)[C@@H](O)CC1=O)[C@H](C)C[C@@H]2OC [tacrolimus] | 84 | less pronounced | –
{[1E-(1R,3R,4S)]1R,9S,12S, 13R,14S,17R,18E,21S,23S,24R,25S,27R}-12-[2-(4-chloro-3-methoxycyclohexyl)-1-methylvinyl]-17-ethyl-1,14-dihydroxy-23,25-dimethoxy-13,19,21,27-tetramethyl-11,28,dioxa-4-azatricyclo [22.3.1.0(4,9)]octacos-18-ene-2,3,10,16-tetraone [pimecrolimus] | 89 | less pronounced | clearly lower
